Experimental data published in paper PMC3454463 (2012).
Where two headings read alike, the source gives them in different places.

Experiments:
Type in all cases: binding
[1] = biological target: T1, MD2 (myeloid differentiation protein 2) (Homo sapiens, UniProt Q9Y6Y9); experiment: quenching of MD2 intrinsic fluorescence
T1 sequence (Q9Y6Y9 19-160): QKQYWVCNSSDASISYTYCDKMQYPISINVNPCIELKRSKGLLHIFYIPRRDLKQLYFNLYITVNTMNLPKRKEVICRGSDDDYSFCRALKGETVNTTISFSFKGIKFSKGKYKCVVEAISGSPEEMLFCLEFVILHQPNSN

[2] = biological target: T1, MD2 (myeloid differentiation protein 2); experiment: quenching of MD2 intrinsic fluorescence; remark: listed apart in the source
[3] = biological target: T1, MD2 (myeloid differentiation protein 2); experiment: Bis-ANS-MD2 complex fluorescence, displaced by

In the case of C=CCN1CC[C@@]23c4c5ccc(O)c4O[C@@H]2C(=O)CC[C@]3(O)[C@@H]1C5 [(+)-naloxone], the Kd [1] is reported as 16.6 ± 4.7 µM.
C=CCN1CC[C@]23c4c5ccc(O)c4O[C@H]2C(=O)CC[C@@]3(O)[C@H]1C5 [(−)-naloxone] gave a Kd [2] of 17.7 ± 3.2 µM.
With O=S(=O)(O)c1cccc2c(-c3ccc(Nc4ccccc4)c4c(S(=O)(=O)O)cccc34)ccc(Nc3ccccc3)c12 [Bis-ANS] the “Bis-ANS-MD2 complex fluorescence, displaced by (+)-naloxone” value [3] was “(+)-Naloxone decreased Bis-ANS-MD2 complex fluorescence, suggesting that (+)-naloxone replaces Bis-ANS binding to MD2”.
